Laboratory results from US12624034B2, “Non-covalent modifiers of AKT1 and uses thereof” (Terremoto Biosciences, Inc., priority 2023, dated 2026).
Read-outs that look alike come from different tables or passages of the source.

Experiments:
[1] = biological target: T1, AKT2 (Homo sapiens, UniProt P31751); assay: Live cell AKT2 target engagement by NanoBRET competitive probe displacement in HEK293 cells; type: binding; conditions: 2 h at 37° C., read-out: AKT2 IC50
T1 construct: expressed in transfected cells; host or cells: HEK293

[2] = biological target: T2, AKT1 WT (Homo sapiens, UniProt P31749); assay: Live cell AKT1 WT target engagement by NanoBRET competitive probe displacement in HEK293 cells; type: binding; conditions: 2 h at 37° C., read-out: AKT1 WT IC50
T2 construct: expressed in transfected cells; host or cells: HEK293

[3] = system: LAPC4 prostate cancer cells, which express the AKT1 E17K allele; assay: Antiproliferative effects in LAPC4 cells (CellTiter Glo, 72 h); type: cell-based; conditions: read-out: LAPC4 proliferation IC50
Description: Antiproliferative Effects in LAPC4 Cells.
LAPC4 prostate cancer cells (Klein, K. A. et al. Nat Med 1997, 3, 402-408), which express the AKT1 E17K allele, were grown in IMDM media (Hyclone) supplemented with 12% FBS+1% P/S. To assess compound effects on growth, 1,000 cells/well were seeded in 384 well assay plates, incubated with compound dilutions dissolved in DMSO. After 72 h, intracellular ATP content was assessed with CellTiter Glo reagent (Promega) according to the manufacturer's instructions. IC50 values were calculated by fitting luminescence values to a log(inhibitor) vs. response Hill equation.

[4] = biological target: T3, AKT1 E17K (Homo sapiens, UniProt P31749, E17K); assay: Live cell AKT1 E17K target engagement by NanoBRET competitive probe displacement in HEK293 cells; type: binding; conditions: 2 h at 37° C.
T3 construct: expressed in transfected cells; host or cells: HEK293
Description: Determining live cell AKT1 E17K, AKT1 WT, and AKT2 target engagement by NanoBRET competitive probe displacement. Live cell target engagement assays were performed as described (Vasta, J. D. et al. Cell Chem Biol 2018, 25(11), 206-214). Briefly, HEK293 cells were transfected with plasmids encoding kinase-NanoLuciferase fusion proteins overnight. Cells were then treated with serial dilutions of compound and an ˜EC50 concentration of fluorescently-tagged ATP-competitive tracer (Promega). After incubation for 2 h at 37° C., luciferase substrate and extracellular luciferase inhibitor were added to all wells, and luminescent intensity at 460 nm and 600 nm were measured on a multimode plate-reader. The ratio of E600/E460 was calculated to give the tracer engagement signal (BRET). IC50 values were calculated by fitting BRET values to a log(inhibitor) vs. response Hill equation.

[5] = NanoBRET live cell target engagement, HEK293 cells
[6] = NanoBRET competitive probe displacement, live HEK293 cells

T2 sequence (P31749 whole entry): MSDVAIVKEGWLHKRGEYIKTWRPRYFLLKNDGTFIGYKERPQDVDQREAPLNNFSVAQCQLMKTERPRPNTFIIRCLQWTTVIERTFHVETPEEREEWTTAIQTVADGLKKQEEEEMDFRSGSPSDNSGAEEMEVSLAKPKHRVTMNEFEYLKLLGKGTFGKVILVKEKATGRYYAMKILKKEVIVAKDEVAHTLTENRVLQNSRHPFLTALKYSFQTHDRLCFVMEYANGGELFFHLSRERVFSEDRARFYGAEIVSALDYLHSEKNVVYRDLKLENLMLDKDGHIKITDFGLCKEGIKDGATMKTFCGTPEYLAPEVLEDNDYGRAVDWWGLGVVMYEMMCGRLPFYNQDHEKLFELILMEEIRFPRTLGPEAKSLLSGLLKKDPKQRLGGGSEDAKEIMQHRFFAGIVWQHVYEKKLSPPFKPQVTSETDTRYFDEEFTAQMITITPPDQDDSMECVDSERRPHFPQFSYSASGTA
T3 sequence (P31749 whole entry E17K): as the sequence (P31749 whole entry) above, with E17K counted along it
T1 sequence (P31751 whole entry): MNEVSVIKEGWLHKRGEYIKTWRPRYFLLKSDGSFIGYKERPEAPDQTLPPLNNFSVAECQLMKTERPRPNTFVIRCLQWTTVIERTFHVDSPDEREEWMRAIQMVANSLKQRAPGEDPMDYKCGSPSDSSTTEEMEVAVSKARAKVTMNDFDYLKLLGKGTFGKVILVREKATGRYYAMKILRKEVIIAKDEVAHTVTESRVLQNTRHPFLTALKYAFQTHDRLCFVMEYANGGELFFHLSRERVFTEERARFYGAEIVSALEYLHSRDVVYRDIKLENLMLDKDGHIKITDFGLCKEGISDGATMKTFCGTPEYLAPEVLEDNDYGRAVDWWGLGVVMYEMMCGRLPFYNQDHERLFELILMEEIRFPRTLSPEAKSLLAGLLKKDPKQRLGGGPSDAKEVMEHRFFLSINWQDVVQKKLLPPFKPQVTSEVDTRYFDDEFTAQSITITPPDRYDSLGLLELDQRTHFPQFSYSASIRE

| SMILES | IC50 [1, 5] | IC50 [2, 5] | IC50 ([3]; Homo sapiens, LAPC4, 72 h) | IC50 [4, 5] | IC50 [3] | IC50 [1, 6] | IC50 [2, 6] | IC50 [4, 6] |
| --- | --- | --- | --- | --- | --- | --- | --- | --- |
| COc1ccc(C(=O)N[C@H]2CCc3cc(-n4c(-c5cccnc5N)nc5ccc(-n6nccn6)nc54)ccc32)cn1 [Compound 371] | 1280 nM | 15.4 nM | 1050 nM | 47.8 nM |  |  |  |  |
| Nc1ncccc1-c1nc2ccc(-n3nccn3)nc2n1-c1ccc2c(c1)CC[C@@H]2NC1CCN(c2ccccn2)CC1 [Compound 366] | 4380 nM | 70.9 nM | > 10000 nM | 818 nM |  |  |  |  |
| Nc1ncccc1-c1nc2ccc(-n3cccn3)nc2n1-c1ccc2c(c1)CC[C@@H]2NC(=O)Cc1cccnc1 [Compound 48, (S)—N-(5-(2-(2-aminopyridin-3-yl)-5-(1H-pyrazol-1-yl)-3H-imidazo[4,5-b]pyridin-3-yl)-2,3-dihydro-1H-inden-1-yl)-2-(pyridin-3-yl)acetamide] | 2850 nM | 155 nM | > 10000 nM | > 1000 nM |  |  |  |  |
| CC(C)(C)c1cn([C@H]2CCc3cc(-n4c(-c5cccnc5N)nc5ccc(-n6cccn6)nc54)ccc32)nn1 [Compound 320] | 2330 nM | 83.7 nM | 2250 nM | 472 nM |  |  |  |  |
| Nc1ncccc1-c1nc2ccc(-n3cccn3)nc2n1-c1ccc2c(c1)CC[C@@H]2NC(=O)C1CC1 [Compound 37, N-[(1S)-5-[2-(2-aminopyridin-3-yl)-5-(pyrazol-1-yl)imidazo[4,5-b]pyridin-3-yl]-2,3-dihydro-1H-inden-1-yl]cyclopropanecarboxamide] | 7720 nM | 175 nM | > 10000 nM | > 1000 nM |  |  |  |  |
| Nc1ncccc1-c1nc2ccc(-n3ccc(N4CCOCC4)n3)nc2n1-c1ccc2c(c1)CC[C@@H]2NC1CCN(C(=O)C2CC2)CC1 [Compound 488] |  |  | 624 nM |  |  | 98 nM | 7.99 nM | 30.6 nM |

Further compounds by falling IC50 [1, 5], results first:

| IC50 [1, 5] | IC50 [2, 5] | IC50 ([3]; Homo sapiens, LAPC4, 72 h) | IC50 [4, 5] | IC50 [3] | IC50 [1, 6] | IC50 [2, 6] | IC50 [4, 6] | SMILES |
| --- | --- | --- | --- | --- | --- | --- | --- | --- |
| 674 nM | 28.7 nM |  | 247 nM | 3140 nM |  |  |  | Nc1ncccc1-c1nc2ccc(-n3cccn3)nc2n1-c1ccc2c(c1)CC[C@@H]2NC1CCN(c2ccccn2)C1 (stereo partly drawn) [Compound 388] |
| 105 nM | 15.8 nM | > 10000 nM | 31.8 nM |  |  |  |  | Cn1nc(C(=O)N[C@H]2CCc3cc(-n4c(-c5cccnc5N)nc5ccc(-n6cccn6)nc54)ccc32)c2c1OCC2 [Compound 390] |
| 90.6 nM | 5.78 nM | 1020 nM | 41.2 nM |  |  |  |  | Nc1ncccc1-c1nc2ccc(-n3cccn3)nc2n1-c1ccc2c(c1)CC[C@@H]2NC(=O)c1ccc2nccn2c1 [Compound 17, (S)—N-(5-(2-(2-aminopyridin-3-yl)-5-(1H-pyrazol-1-yl)-3H-imidazo[4,5-b]pyridin-3-yl)-2,3-dihydro-1H-inden-1-yl)imidazo[1,2-a]pyridine-6-carboxamide] |
| 57.4 nM | 6.36 nM | 1170 nM | 30.1 nM |  |  |  |  | N#Cc1ccc(C(=O)N[C@H]2CCc3cc(-n4c(-c5cccnc5N)nc5ccc(-n6cccn6)nc54)ccc32)cc1 [Compound 41, N-[(1S)-5-[2-(2-aminopyridin-3-yl)-5-(pyrazol-1-yl)imidazo[4,5-b]pyridin-3-yl]-2,3-dihydro-1H-inden-1-yl]-4-cyanobenzamide] |
| 55.8 nM | 2.97 nM | 523 nM | 10.8 nM |  |  |  |  | Cn1c(C(=O)N[C@H]2CCc3cc(-n4c(-c5cccnc5N)nc5ccc(-n6cccn6)nc54)ccc32)cc2ccccc2c1=O [Compound 8, N—{(S)-5-[2-(2-amino-3-pyridyl)-5-(1-pyrazolyl)-3H-1,3,4-triazainden-3-yl]-1-indanyl}-2-methyl-1-oxo-1,2-dihydro-3-isoquinolinecarboxamide] |
| 20 nM | 5.79 nM | 875 nM | 23.8 nM |  |  |  |  | COc1cc(C(=O)N[C@H]2CCc3cc(-n4c(-c5cccnc5N)nc5ccc(-n6cccn6)nc54)ccc32)c(C)cn1 [Compound 357] |
